Results taken from patent US12503490B2, “Method of treating Gram-negative bacterial infection with isolated darobactin compounds” (Northeastern University, priority 2018, dated 2025).

Test system: E. coli
Test: Antagonization assay by lipopolysaccharide (LPS)
Type: cell-based
Set-up: key: +: grown; −: not grown
Method: darobactin A is a large compound of 966 Da molecular weight. The limit for penetration into Gram-negative bacteria is around 500 Da. It therefore seemed possible that darobactin A acted on the cell surface, similarly to polymyxin which targets lipopolysaccharide (LPS). In order to test this, activity of darobactin A was tested in the presence of LPS. E. coli was inoculated into 5 mL MHIIB, and grown until the cell density reach to OD600=0.1-0.9. The cell suspension was diluted to OD600=0.002 with 2×MHIIB. 40 μL of LPS solution (final concentration range from 0 to 800 μg/mL) and 2 μL of 2×MIC antibiotic solution (final concentration: polymyxin; 0.5 μg/mL, ampicillin; 16 μg/mL, darobactin A; 16 μg/mL) were mixed in a 96-well plate and fill up to 50 μL by sterile dI water. LPS and antibiotic solutions were mixed with 50 μL of E. coli cell suspensions, and incubated at 37° C. for 20 hours. The growth of E. coli was determined visually (Table 3).

Compound | growth of E. coli with 2× MIC antibiotic (LPS 0 μg/mL) | growth of E. coli with 2× MIC antibiotic (LPS 3.13 μg/mL) | growth of E. coli with 2× MIC antibiotic (LPS 6.25 μg/mL) | growth of E. coli with 2× MIC antibiotic (LPS 800 μg/mL)
CC1(C)S[C@@H]2[C@H](NC(=O)[C@H](N)c3ccccc3)C(=O)N2[C@H]1C(=O)O [Ampicillin] | − | − | − | −
Polymyxin B | − | − | + | +
